The text below walks through data of PubChem BioAssay (NCI).

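Method: 48-hour compound exposure of cells in 96-well plates, five concentrations, linear interpolation of endpoints. The concentration for 50% growth inhibition is given as GI50. The concentration for full growth arrest is given as TGI.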

Among the test systems are SK-MEL-5 melanoma; DU-145 prostate; MDA-MB-231 breast; HCC-2998 colon; OVCAR-5 ovarian; T-47D breast; HCT-15 colon; SK-MEL-2 melanoma; KM12 colon; PC-3 prostate.
Assay in all cases: NCI tumour cell line growth inhibition, 48 h

Take `CC(=O)/C=C/C1=C(c2cc3ccccc3s2)c2ccccc2CC1`: the GI50 was 16300 nM in the assay on SK-MEL-5 melanoma; 52800 nM in the assay with DU-145 prostate; 26200 nM in the assay on MDA-MB-231 breast; 22700 nM in the assay with HCC-2998 colon; 27000 nM in the assay on OVCAR-5 ovarian; 8.58 µM in the assay with T-47D breast. Besides, the GI50 with HCT-15 colon is 21.8 µM; with SK-MEL-2 melanoma, 20000 nM; in the assay with KM12 colon, 18500 nM; in the assay on PC-3 prostate, 18400 nM. Further, the TGI is 35.3 µM in the assay with SK-MEL-5 melanoma; over 100 µM in the assay with DU-145 prostate; 88.2 µM with MDA-MB-231 breast; 50.2 µM in the assay with HCC-2998 colon; 67.9 µM with OVCAR-5 ovarian; over 100 µM with T-47D breast. For the same compound, the TGI is 67.3 µM with HCT-15 colon, 42.2 µM with SK-MEL-2 melanoma, 42.2 µM with KM12 colon and over 100 µM in the assay on PC-3 prostate.

Turning to `CC(C)(C)c1ccc([I+]c2ccc(C(C)(C)C)cc2)cc1`, the GI50 was 348 nM with SK-MEL-5 melanoma; 1700 nM in the assay with DU-145 prostate; 1350 nM with MDA-MB-231 breast; 1780 nM in the assay with HCC-2998 colon; 3240 nM in the assay with OVCAR-5 ovarian; 0.745 µM with T-47D breast. Moreover, the GI50 in the assay on HCT-15 colon was 5.08 µM; with SK-MEL-2 melanoma, 1510 nM; in the assay with KM12 colon, 1040 nM; in the assay on PC-3 prostate it was 1170 nM. Besides, the TGI with SK-MEL-5 melanoma worked out at 1.19 µM; in the assay on DU-145 prostate it was 3.53 µM; with MDA-MB-231 breast it was 2.83 µM; in the assay on HCC-2998 colon, 9.09 µM; in the assay with OVCAR-5 ovarian, 12.9 µM; in the assay on T-47D breast it was 5.67 µM. Besides, the TGI in the assay with HCT-15 colon turned out to be 18.2 µM; with SK-MEL-2 melanoma, 3.86 µM; with KM12 colon it was 2.83 µM; in the assay with PC-3 prostate it was 6.05 µM.

Turning to `[Cu+2].[O-]c1ccc2ccccc2c1N=Nc1ccccc1.[O-]c1ccc2ccccc2c1N=Nc1ccccc1`, the TGI in the assay on SK-MEL-5 melanoma, in the assay on DU-145 prostate, with MDA-MB-231 breast, in the assay on HCC-2998 colon, in the assay on OVCAR-5 ovarian and in the assay on T-47D breast was over 100 µM throughout. Further, the TGI in the assay on HCT-15 colon, in the assay on SK-MEL-2 melanoma, with KM12 colon and with PC-3 prostate was over 100 µM each time. Further, the values for the GI50 in the assay on T-47D breast and with KM12 colon were over 100 µM and over 100000 nM, respectively.

Turning to `Brc1ccc([I+]c2ccc(Br)cc2)cc1`, the GI50 in the assay on SK-MEL-5 melanoma was 545 nM; in the assay with DU-145 prostate, 3600 nM; in the assay on MDA-MB-231 breast, 2340 nM; in the assay on HCC-2998 colon it was 1320 nM; in the assay with OVCAR-5 ovarian it was 2580 nM; in the assay on T-47D breast, 1.78 µM. Besides, the GI50 in the assay with HCT-15 colon is 8.3 µM; in the assay on SK-MEL-2 melanoma, 1360 nM; in the assay with KM12 colon, 1290 nM; in the assay with PC-3 prostate, 1250 nM. Moreover, the TGI was found to be 1.83 µM with SK-MEL-5 melanoma; 16.6 µM in the assay with DU-145 prostate; 17 µM with MDA-MB-231 breast; 8.12 µM in the assay on HCC-2998 colon; 7.9 µM with OVCAR-5 ovarian; 11 µM in the assay with T-47D breast. The TGI in the assay with HCT-15 colon is 42.7 µM; with SK-MEL-2 melanoma, 3.09 µM; in the assay on KM12 colon it was 2.89 µM; in the assay on PC-3 prostate, 3.8 µM.

`CS(=O)(=O)CCNCc1ccc(-c2ccc3ncnc(Nc4ccc(OCc5cccc(C(F)(F)F)c5)cc4)c3c2)o1`: the GI50 was 6050 nM in the assay with SK-MEL-5 melanoma; 6980 nM with DU-145 prostate; 6340 nM in the assay on MDA-MB-231 breast; 4460 nM with HCC-2998 colon; 9030 nM with OVCAR-5 ovarian; 7.6 µM in the assay with T-47D breast. The GI50 with HCT-15 colon is 4.71 µM; in the assay with SK-MEL-2 melanoma, 5460 nM; in the assay on KM12 colon, 5740 nM; with PC-3 prostate it was 5630 nM. In addition, the TGI in the assay on SK-MEL-5 melanoma was over 13.5 µM; with DU-145 prostate, over 22.6 µM; in the assay on MDA-MB-231 breast, 14.1 µM; with HCC-2998 colon it was 8.26 µM; in the assay on OVCAR-5 ovarian it was 24.3 µM; in the assay with T-47D breast, over 23 µM. Moreover, the TGI in the assay with HCT-15 colon turned out to be 10.6 µM; with SK-MEL-2 melanoma it was 9.96 µM; in the assay on KM12 colon it was 13.2 µM; in the assay with PC-3 prostate, 19.9 µM.

In the case of `O=C(COc1cccc(/C=C2\COc3ccccc3C2=O)c1)Nc1nccs1`, the GI50 was 5270 nM in the assay on SK-MEL-5 melanoma; 1960 nM in the assay on DU-145 prostate; 3550 nM in the assay with MDA-MB-231 breast; 1950 nM in the assay on HCC-2998 colon; 2650 nM in the assay on OVCAR-5 ovarian; 3.13 µM in the assay on T-47D breast. Moreover, the GI50 is 3.11 µM in the assay with HCT-15 colon, 1880 nM in the assay on SK-MEL-2 melanoma, 1710 nM in the assay on KM12 colon and 1370 nM in the assay with PC-3 prostate. For the same compound, the TGI came to 19.5 µM with SK-MEL-5 melanoma; 3.37 µM in the assay with DU-145 prostate; 17 µM in the assay with MDA-MB-231 breast; 3.48 µM in the assay on HCC-2998 colon; 10.1 µM with OVCAR-5 ovarian; 12.5 µM in the assay with T-47D breast. The TGI in the assay with HCT-15 colon was 10.2 µM; in the assay on SK-MEL-2 melanoma, 5.05 µM; with KM12 colon, 3.15 µM; in the assay with PC-3 prostate, 3.46 µM.

Turning to `C#C[C@]1(O)CC[C@H]2[C@@H]3CC=C4c5sc(N=C(N)N)nc5CC[C@]4(C)[C@H]3CC[C@@]21C`, the GI50 was 628 nM with SK-MEL-5 melanoma; 1190 nM in the assay with DU-145 prostate; 1140 nM with MDA-MB-231 breast; 1590 nM with HCC-2998 colon; 1330 nM with OVCAR-5 ovarian; 1.19 µM in the assay on T-47D breast. Further, the GI50 is 0.525 µM with HCT-15 colon, 787 nM with SK-MEL-2 melanoma, 1100 nM in the assay on KM12 colon and 475 nM in the assay with PC-3 prostate. Besides, the TGI in the assay with SK-MEL-5 melanoma is 1.66 µM; in the assay with DU-145 prostate, 2.67 µM; in the assay with MDA-MB-231 breast, 2.66 µM; with HCC-2998 colon it was 3.1 µM; in the assay with OVCAR-5 ovarian, 2.65 µM; in the assay on T-47D breast, 3.16 µM. Also, the TGI was 1.98 µM in the assay with HCT-15 colon, 2.36 µM with SK-MEL-2 melanoma, 2.55 µM with KM12 colon and 1.8 µM in the assay with PC-3 prostate.
